These results are taken from patent US8642553B2, “Acacia macrostachya seed extract and compositions containing same” (Laboratoires Expanscience, priority 2009, dated 2014).

For test [1], the system named is Normal human keratinocytes. Put plainly: Screening of expression of junction protein messengers in keratinocytes (PCR array). It is filed as cell-based. The note with it: 1.5 mM, 24 hours, Control: 100%. The protocol: The activity of Acacia hydrolysate was studied by quantitative RT-PCR on the level of expression of 16 genes mainly coding for tight junction proteins as well as for the major proteins of the communicating junctions of the epidermis. […] The expression of the markers was evaluated by quantitative RT-PCR (PCR array). The variation in the expression of the markers studied compared to the control was expressed in percentage (Control: 100%). The levels of expression are classified in the following manner: […]

The test system of the next test is Normal human fibroblasts. Put plainly: Gene expression of markers of the dermal matrix and antioxidant defences by fibroblasts (quantitative RT-PCR in real time). It is filed as cell-based. The following applies: 5 ng/ml, 24h. The protocol:
The effect of Acacia hydrolysate on the modulation of the extra-cellular matrix of the dermis and on the stimulation of the anti-oxidant defences was evaluated on a dermal fibroblasts model in which the gene expression of elastin, MMP1 and heme oxygenase 1 was studied by quantitative RT-PCR in real time.
Normal human fibroblasts were treated for 24h with 0.01% and 0.05% Acacia hydrolysate (w/v) or with the reference TGFβ1 at 5 ng/ml. The gene expression of the selected markers was analysed by quantitative RT-PCR in real time.
The results were analysed statistically by a one-way variance analysis (ANOVA) followed by a Dunnett test: • ns p>0.05: not significant • *0.01<p<0.05: significant • **0.001<p<0.01: very significant • ***p<0.001: highly significant
The level of gene expression was expressed in relative quantity (RQ) and the effect of the treatment in relation to the control cells in percentage increase or inhibition.

Turning to `[Ca+2].[Cl-].[Cl-]` [CaCl2, calcium chloride], in test [1], the Cingulin messenger expression was found to be 337 % Control, the “Claudin 1 messenger expression” value is listed as 216 % Control, the “Gap junction protein (β2 messenger expression)” value is 43 % Control and the Occludin messenger expression is 445 % Control.
As for TGFβ1: reference TGFβ1 at 5 ng/ml, in the test with Normal human fibroblasts, the “ELASTIN gene expression, percentage increase or inhibition vs control cells” value is listed as “+559%” and the “MMP1 gene expression, percentage increase or inhibition vs control cells” value is recorded as −88%. Further, in the test on Normal human fibroblasts (control cells 1.00), the “ELASTIN gene expression, relative quantity (RQ)” value was 6.59 and the “MMP1 gene expression, relative quantity (RQ)” value was found to be 0.12.
